Results reported in ChEMBL document CHEMBL1139584 (Bioorg Med Chem Lett, 2005).

Key:
[1] = target: T1, Somatostatin receptor type 2 (Homo sapiens, UniProt P30874); test: Inhibitory constant against human sst2 receptor at a dose of 10 uM
[2] = target: Somatostatin receptor type 4 (Homo sapiens, UniProt P31391); test: Binding affinity against human sst4 receptor at a dose of 10 uM
[3] = target: Somatostatin receptor type 3 (Homo sapiens, UniProt P32745); test: Binding affinity against human sst3 receptor at 10 uM
[4] = target: Somatostatin receptor type 1 (Homo sapiens, UniProt P30872); test: Binding affinity against human sst1 receptor at a dose of 10 uM
[5] = target: T2, Somatostatin receptor type 5 (Homo sapiens, UniProt P35346); test: Inhibitory constant against human sst5 receptor at a dose of 10 uM
[6] = target: T1, Somatostatin receptor type 2; test: Inhibition of forskolin-induced cAMP accumulation in CHO-K1 cells expressing human sst2 receptor; assay type: functional, cell-based
[7] = target: T2, Somatostatin receptor type 5; test: Inhibition of forskolin-induced cAMP accumulation in CHO-K1 cells expressing human sst5 receptor; assay type: functional, cell-based

Somatostatin receptor type 4, sequence (P31391 whole entry): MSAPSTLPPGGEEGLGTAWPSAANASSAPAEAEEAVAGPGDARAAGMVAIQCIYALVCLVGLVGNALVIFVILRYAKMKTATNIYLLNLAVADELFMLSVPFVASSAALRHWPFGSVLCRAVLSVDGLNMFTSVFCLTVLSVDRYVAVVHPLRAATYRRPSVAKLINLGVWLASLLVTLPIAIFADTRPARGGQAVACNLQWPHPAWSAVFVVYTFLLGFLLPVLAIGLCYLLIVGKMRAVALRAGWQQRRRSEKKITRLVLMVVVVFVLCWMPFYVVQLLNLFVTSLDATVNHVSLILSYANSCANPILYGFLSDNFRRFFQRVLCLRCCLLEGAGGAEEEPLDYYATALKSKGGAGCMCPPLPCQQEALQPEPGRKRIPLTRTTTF
Somatostatin receptor type 3, sequence (P32745 whole entry): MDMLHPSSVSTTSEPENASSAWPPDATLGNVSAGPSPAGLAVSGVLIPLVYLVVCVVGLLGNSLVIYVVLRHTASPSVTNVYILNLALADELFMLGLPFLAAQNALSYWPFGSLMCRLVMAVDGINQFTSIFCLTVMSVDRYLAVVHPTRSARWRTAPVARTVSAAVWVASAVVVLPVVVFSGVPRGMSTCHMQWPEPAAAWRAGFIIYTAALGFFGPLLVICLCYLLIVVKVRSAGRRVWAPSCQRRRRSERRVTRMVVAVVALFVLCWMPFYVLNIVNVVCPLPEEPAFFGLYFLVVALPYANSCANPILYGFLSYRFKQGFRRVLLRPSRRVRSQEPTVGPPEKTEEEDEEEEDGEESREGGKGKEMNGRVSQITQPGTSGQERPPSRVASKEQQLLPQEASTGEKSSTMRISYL
T1 sequence (P30874 whole entry): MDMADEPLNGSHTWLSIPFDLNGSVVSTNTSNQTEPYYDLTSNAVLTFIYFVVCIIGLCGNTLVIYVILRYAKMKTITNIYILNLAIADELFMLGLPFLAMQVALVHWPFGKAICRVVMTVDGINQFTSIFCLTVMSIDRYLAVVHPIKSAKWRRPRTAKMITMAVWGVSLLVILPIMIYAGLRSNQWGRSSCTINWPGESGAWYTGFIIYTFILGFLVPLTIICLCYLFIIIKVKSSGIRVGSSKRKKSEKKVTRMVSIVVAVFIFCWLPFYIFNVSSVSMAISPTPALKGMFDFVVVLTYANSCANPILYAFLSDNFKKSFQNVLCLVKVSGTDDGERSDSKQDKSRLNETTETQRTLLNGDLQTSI
T2 sequence (P35346 whole entry): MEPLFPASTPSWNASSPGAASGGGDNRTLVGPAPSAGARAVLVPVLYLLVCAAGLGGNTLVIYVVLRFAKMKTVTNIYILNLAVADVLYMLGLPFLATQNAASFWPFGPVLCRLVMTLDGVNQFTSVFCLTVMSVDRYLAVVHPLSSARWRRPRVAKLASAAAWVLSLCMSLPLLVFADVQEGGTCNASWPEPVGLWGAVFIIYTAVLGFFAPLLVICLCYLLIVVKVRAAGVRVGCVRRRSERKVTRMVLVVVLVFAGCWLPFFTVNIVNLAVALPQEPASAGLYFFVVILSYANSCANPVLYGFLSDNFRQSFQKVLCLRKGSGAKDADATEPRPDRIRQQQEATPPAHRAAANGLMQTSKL
Somatostatin receptor type 1, sequence (P30872 whole entry): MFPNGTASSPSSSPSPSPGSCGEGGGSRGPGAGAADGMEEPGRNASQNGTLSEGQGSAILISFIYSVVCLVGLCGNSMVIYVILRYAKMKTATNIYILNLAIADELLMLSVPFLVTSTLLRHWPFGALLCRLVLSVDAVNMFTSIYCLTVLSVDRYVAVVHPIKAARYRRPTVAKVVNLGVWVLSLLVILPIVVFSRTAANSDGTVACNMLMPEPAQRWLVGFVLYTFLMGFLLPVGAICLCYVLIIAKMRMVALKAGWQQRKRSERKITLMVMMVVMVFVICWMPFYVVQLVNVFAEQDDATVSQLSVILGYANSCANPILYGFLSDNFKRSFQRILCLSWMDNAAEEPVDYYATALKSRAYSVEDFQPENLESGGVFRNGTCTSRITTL

Structure (SMILES)	Ki [1] [nM]	Ki [2] [nM]	Ki [3] [nM]	Ki [4] [nM]	Ki [5] [nM]	EC50 [6] [nM]	EC50 [7] [nM]
NCCCCn1c(SCCc2c[nH]c3ccccc23)nnc1-c1cccc(Br)c1	250				51		
NCCCCn1c(SCCc2c[nH]c3ccccc23)nnc1-c1cnc2ccccc2n1	32				56		
NCCCCn1c(SCCc2c[nH]c3ccccc23)nnc1-c1ccc2ccccc2c1	100				27		
NCCCCn1c(SCCc2c[nH]c3ccccc23)nnc1-c1cccc2cc[nH]c12	220				64		
CN(C)CCCCn1c(SCCc2c[nH]c3ccccc23)nnc1-c1ccc2ccccc2c1	2800				1300		
NCCCCn1c(SCCc2c[nH]c3ccccc23)nnc1-c1cc2ccccc2s1	160				58		
NCCCCn1c(SCCc2c[nH]c3ccccc23)nnc1-c1cccc2ccccc12	150				410		
NCCCCCn1c(SCCc2c[nH]c3ccccc23)nnc1-c1ccc2ccccc2c1	610				70		
CCc1ccc(-c2nnc(SCCc3c[nH]c4ccccc34)n2CCCCN)cc1	430				26		
NCCCn1c(SCCc2c[nH]c3ccccc23)nnc1-c1ccc2ccccc2c1	640				66		

These reach a lower Ki [1]. Values come first.

Ki [1] [nM]	Ki [2] [nM]	Ki [3] [nM]	Ki [4] [nM]	Ki [5] [nM]	EC50 [6] [nM]	EC50 [7] [nM]	Structure (SMILES)
4	130	97	180	8.4			NCCCCn1c(SCCc2c[nH]c3c(Cl)cccc23)nnc1-c1ccc2ccccc2n1
1.8	140	41	130	2.1	22	34	Cc1cccc2c(CCSc3nnc(-c4ccc5ccccc5n4)n3CCCCN)c[nH]c12
5.6				2.3	6.3	52	NCCCCn1c(SCCc2c[nH]c3ccc(Cl)cc23)nnc1-c1ccc2ccccc2n1
23				9.3			Cc1cccc2c(C(=O)C(C)(C)CSc3nnc(-c4ccc5ccccc5n4)n3CCCCN)c[nH]c12
2.7	74	100	58	1.7	14	44	NCCCCn1c(SCCc2c[nH]c3cc(F)ccc23)nnc1-c1ccc2ccccc2n1
12				7.8			NCCCCn1c(SCCc2c[nH]c3ccccc23)nnc1-c1ccc2cc(F)ccc2n1
2	800	170	530	0.38	4	2.3	Cc1cccc2c(C(=O)CCSc3nnc(-c4ccc5ccccc5n4)n3CCCCN)c[nH]c12
